Data on three molecules can be found in patent publication US9145411B2, “Substituted amino-pyrimidine derivatives” (Asana Biosciences, LLC, priority 2012, dated 2015).

pIC50: −log10 of the molar value.

One assay has as its system pAKT (S473). Description: In vivo PK/PD study, U87MG tumor xenograft, pAKT (S473). The note with it: U87MG tumor-bearing xenograft mice, 50 mg/kg po. As for the experimental part: (§1) PC3 cells are cultured at 37° C. in a 5% CO2 incubator using Hams F12 K medium. Ten million (10^7) cells are injected subcutaneously to the right flank region of athymic male mice (Harlan, age: 6-7 weeks, weight: about 20 g). Tumor bearing mice are randomized when the tumor volume reaches about 250 mm^3 and three mice are used per each time point. Test compounds of formula (I) are typically formulated in 40% HPCD in 1×PBS, pH 7.4 or in 10% Ethanol/40% Solutol/50% 50 mM aq. methanesulfonic acid and dosed orally at 50 mg/kg single dose (dose volume—10 mL/kg). Plasma and tumor samples are collected at 0 (vehicle control animals), 1, 4 and 24 hours post dosing. Blood is drawn (retro orbital) to a tube containing 0.2% EDTA for plasma collection. […] Tumor and plasma drug concentrations are measured for PK analysis using LC-MS.
(§2) Snap frozen tumor samples are pulverized in a mortar (Belart) containing liquid nitrogen and tumor powder is stored at −80° C. until analysis. […] The detection for pAKT is based on chemiluminescence and pS6RP is based on absorbance. […]
(§3) In vivo pharmacokinetic/pharmacodynamic (PK/PD) studies were carried out in a similar manner using U87MG tumor cells (glioma cancer cell line with a PTEN null mutation) and the corresponding tumor-bearing xenograft mice, and compounds of the invention were determined to be active in this assay. […]

For another assay, the system named is pAKT (T308). Put plainly: In vivo PK/PD study, U87MG tumor xenograft, pAKT (T308). As to conditions: U87MG tumor-bearing xenograft mice, 50 mg/kg po. As for the experimental part: as §1, §2, §3
A further assay deals with BT474 cells. Put plainly: XTT assay for cell viability, BT474 cells. The class given is cell-based. As to conditions: Homo sapiens, BT-474, read-out: inhibition of BT474 cell proliferation, IC50. The procedure:
(§4) Using a commercial kit from Sigma Aldrich (Catalog #X34251) and following its protocol, PC3 cells in the log phase of growth were employed and seeded at an optimal density of 1000 cell/well on to 96 well plates and incubated for 24 hours followed by the addition of compounds of formula (I) in serial dilutions. Compound dilutions were made in DMSO. The cells were incubated with the compounds of formula (I) for 96 hours and XTT tetrazolium dye (Sigma, USA) was subsequently added and incubated at 37° C. After the color formation, absorbance was measured at 465 nm in a Spectramax® Gemini spectrophotometer. EC50 values were calculated using a sigmoidal dose response curve fit in GraphPad Prism® v5 software. The tested compounds of formula (I) which caused inhibition of PC3 cell proliferation as determined by this assay protocol are shown in Table 2.
(§5) XTT assays for cell viability were also determined in U87MG, BT474 cells and T47D cells, in a similar manner to the protocol described above. The compounds cause inhibition of U87MG, BT474 and T47D cell proliferation as determined by these assays. For example, the compounds of Examples 3 and 7 caused inhibition of U87MG, BT474 and T47D cell proliferation with IC50 values<600 nM.
Background: Formazan colour is commonly taken as a measure of viable cells.

The target in another assay is PI3Kα mutation E545K (Homo sapiens, UniProt P42336, E545K). Put plainly: PI3 Kinase TR-FRET assay, PI3Kα mutation E545K. In kind it is biochemical. As to conditions: read-out: inhibition of PI3Kα mutation E545K, IC50. The procedure:
The ability of compounds of the invention to inhibit PI3K activity was determined in a homogeneous TR-FRET assay using a PI3K assay kit (Millipore, USA; cat #33-016) according to manufacturer's instructions. PI3-Kinases (isoforms α, β, γ and δ) catalyze the phosphorylation of phosphatidylinositol, PIP2 to PIP3 in the presence of ATP and Mg^2+. The PIP3 product is detected by displacement of biotin-PIP3 from an energy transfer complex consisting of Europium labeled anti-GST monoclonal antibody, a GST-tagged PH domain, biotinylated PIP3 and Streptavidin-APC. Excitation of Europium in the complex results in an energy transfer to the APC and a fluorescence emission at 665 nm. The PIP3 product displaces biotin-PIP3 from the complex resulting in a loss of energy transfer and thus a decrease in signal.
To test for the ability of compounds to inhibit the activity of PI3Kα (wild-type), exemplary compounds of formula (I) were dissolved in DMSO and directly distributed into 384-well plates at a volume of 0.5 μL. 14.5 μL of P110/P85α/PIP2 mixture in buffer (obtained from the Millipore kit) containing MgCl2 (40 mM) and DTT (5 mM) was added to compound wells and incubated for 60 minutes at room temperature. P110/P85α was expressed in SF9 insect cells and purified nickel column extraction. Five ng of wild-type P110/P85α was used in the assay. The kinase reaction was started by the addition of ATP. The assay concentrations of both PIP2 and ATP were 10 μM. The reaction mixture was incubated for 30 minutes at room temperature and was terminated by the addition of stop mix and detection mix. Fluorescence was measured at 615 and 665 nm upon excitation at 340 nm in a Victor™ V5 fluorometer (Perkin Elmer, USA). The fluorescence emission ratio at 665 to 615 nm, proportional to the kinase activity, was plotted against the compound concentration to generate dose-response curves and IC50 values were determined using GraphPad Prism® 5 software.
The activity of PI3Kα mutations H1047R and E545K were assayed in a similar manner to the assay protocol described above for PI3Kα (wild type). The compounds of formula (I) caused inhibition of PI3Kα mutations H1047R (a mutation associated with breast and gastric cancers) and E545K (a mutation associated with colorectal tumors, glioblastomas, gastric cancers, breast cancers, and lung cancers). For example, each of the compounds of Example 3, 7, 21, 47, 48 and 49 caused inhibition of each of the PI3Kα mutations H1047R and E545K with IC50 values<50 nM.
(In general: Time-resolved FRET reads energy transfer from a long-lived donor to a nearby acceptor.)

The subject of a further assay is U87MG cells. Put plainly: XTT assay for cell viability, U87MG cells. In kind it is cell-based. The note with it: Homo sapiens, U-87 MG, read-out: inhibition of U87MG cell proliferation, IC50. As for the experimental part: as §4, §5

PI3Kα mutation E545K, sequence (P42336 whole entry E545K, the tested form may be a part, canonical isoform): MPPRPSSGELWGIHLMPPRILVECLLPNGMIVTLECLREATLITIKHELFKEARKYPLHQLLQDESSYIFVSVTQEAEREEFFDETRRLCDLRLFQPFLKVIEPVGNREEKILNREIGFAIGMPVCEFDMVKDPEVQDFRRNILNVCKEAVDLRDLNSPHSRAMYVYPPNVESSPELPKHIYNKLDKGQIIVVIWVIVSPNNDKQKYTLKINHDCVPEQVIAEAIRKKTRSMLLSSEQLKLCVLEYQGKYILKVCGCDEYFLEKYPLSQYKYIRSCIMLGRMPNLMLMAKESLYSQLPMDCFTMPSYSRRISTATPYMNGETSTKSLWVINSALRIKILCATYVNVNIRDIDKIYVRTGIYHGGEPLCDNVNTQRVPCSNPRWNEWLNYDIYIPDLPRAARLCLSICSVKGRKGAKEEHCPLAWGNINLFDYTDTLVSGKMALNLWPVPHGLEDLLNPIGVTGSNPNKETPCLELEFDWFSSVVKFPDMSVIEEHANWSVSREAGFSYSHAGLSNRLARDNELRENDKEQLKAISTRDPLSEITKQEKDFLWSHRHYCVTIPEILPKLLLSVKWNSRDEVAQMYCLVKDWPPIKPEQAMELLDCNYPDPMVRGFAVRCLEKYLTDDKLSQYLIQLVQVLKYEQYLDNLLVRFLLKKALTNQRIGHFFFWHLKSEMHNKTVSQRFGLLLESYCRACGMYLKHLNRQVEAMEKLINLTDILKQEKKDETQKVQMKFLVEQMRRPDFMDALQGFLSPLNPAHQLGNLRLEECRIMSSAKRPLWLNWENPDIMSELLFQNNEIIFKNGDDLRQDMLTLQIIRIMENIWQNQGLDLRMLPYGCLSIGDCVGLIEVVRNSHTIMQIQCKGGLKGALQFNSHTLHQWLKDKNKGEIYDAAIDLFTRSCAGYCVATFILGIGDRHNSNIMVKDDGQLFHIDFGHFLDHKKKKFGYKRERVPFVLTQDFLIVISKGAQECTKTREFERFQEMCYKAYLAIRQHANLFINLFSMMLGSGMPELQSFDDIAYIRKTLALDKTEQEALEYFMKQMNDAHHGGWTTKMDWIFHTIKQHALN
PI3Kα mutation E545K, sequence (P27986 whole entry partner, the tested form may be a part, canonical isoform): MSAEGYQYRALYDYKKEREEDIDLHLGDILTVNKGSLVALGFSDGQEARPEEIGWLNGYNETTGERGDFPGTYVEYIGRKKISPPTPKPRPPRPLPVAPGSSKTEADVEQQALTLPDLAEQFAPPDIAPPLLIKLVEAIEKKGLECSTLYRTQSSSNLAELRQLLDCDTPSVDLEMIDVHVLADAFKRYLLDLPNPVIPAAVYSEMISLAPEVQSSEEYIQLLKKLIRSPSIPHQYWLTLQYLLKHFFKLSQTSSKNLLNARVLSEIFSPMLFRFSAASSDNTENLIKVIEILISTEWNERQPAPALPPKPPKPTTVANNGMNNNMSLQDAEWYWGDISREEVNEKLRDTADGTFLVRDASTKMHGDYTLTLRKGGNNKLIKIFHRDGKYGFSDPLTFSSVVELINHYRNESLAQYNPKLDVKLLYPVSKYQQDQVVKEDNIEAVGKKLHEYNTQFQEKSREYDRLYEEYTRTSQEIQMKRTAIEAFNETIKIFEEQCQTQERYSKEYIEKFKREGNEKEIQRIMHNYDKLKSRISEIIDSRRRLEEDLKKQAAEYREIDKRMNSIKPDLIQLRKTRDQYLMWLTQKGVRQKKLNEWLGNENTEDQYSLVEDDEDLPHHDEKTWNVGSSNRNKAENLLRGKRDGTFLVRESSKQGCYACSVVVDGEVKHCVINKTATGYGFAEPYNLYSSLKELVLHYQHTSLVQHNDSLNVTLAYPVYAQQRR

Take `N#CC1(C(=O)Nc2cccc(-c3cnc4c(N5CCOCC5)nc(-c5cnc(N)nc5)nc4c3)c2)CC1` [Example 61, N-(3-(2-(2-amino-pyrimidin-5-yl)-4-morpholinopyrido[3,2-d]pyrimidin-7-yl)phenyl)-1-cyanocyclopropane-carboxamide]: the “suppression of pAKT (S473)” value in the assay with pAKT (S473) is “suppression”. The “suppression of pAKT (T308)” value in the assay on pAKT (T308) is “suppression”.
Take `CC(=O)Nc1cccc(-c2cnc3c(N4CCOCC4)nc(-c4cnc(N)nc4)nc3c2)c1` [Example 3, N-(3-(2-(2-Aminopyrimidin-5-yl)-4-morpholinopyrido[3,2-d]pyrimidin-7-yl)-phenyl)acetamide]: the “suppression of pAKT (S473)” value in the assay with pAKT (S473) was “suppression”. The values for the pIC50 in the assay with BT474 cells, on PI3Kα mutation E545K and with U87MG cells were greater than 6.22, greater than 7.30 and greater than 6.22, respectively. Further, in the assay with pAKT (T308), the “suppression of pAKT (T308)” value is reported as “suppression”.
As for `Nc1ncc(-c2nc(N3CCOCC3)c3ncc(-c4cccc(NC(=O)C5CC5)c4)cc3n2)cn1` [Example 7, N-(3-(2-(2-Aminopyrimidin-5-yl)-4-morpholinopyrido[3,2-d]pyrimidin-7-yl)-phenyl)cyclopropanecarboxamide], the pIC50 in the assay on BT474 cells is greater than 6.22; at PI3Kα mutation E545K it was greater than 7.30; in the assay on U87MG cells it was greater than 6.22.
